Test results reported in patent publication US10517889B2, “Modulators of SMAD7 expression” (Ionis Pharmaceuticals, Inc., priority 2017, dated 2019).
“And” between values parts separate entries of the source, which are not always exact repeats. Equal values may be shown once. Strand notation (5' to 3'): a small letter for the sugar, then the base; units joined by * are phosphorothioate-linked, units joined directly phosphodiester-linked; [ ] holds rarer units or linkages, { } end groups; capitals alone tell only the bases. k = constrained ethyl (cEt); [5mC] = 5-methylcytosine; d = 2'-deoxy (DNA)

Key:
[1] = tested on: human SMAD7 mRNA; assay: Dose-dependent inhibition of human SMAD7 mRNA expression in A431 cells, oligonucleotide added without transfection (Example 5, Study 1); type: cell-based; settings: approximately 48 hours
Experimental: The newly designed compounds disclosed herein are cEt-modified antisense oligonucleotides. […] The studies described below show a comparison of select cEt-modified gapmers and ION0736697/Mongersen.
A431 cells were plated in collagen I-coated 96-well plates in DMEM with […]. Immediately after plating, 0.08 μM, 0.25 μM, 0.74 μM, 2.22 μM, 6.67 μM, or 20.00 μM concentrations of antisense oligonucleotide were added. The plates were shaken briefly before incubating at 37° C. and 10% CO2. After a treatment period of approximately 48 hours, the cells were washed and lyzed and RNA on 384-well Pall plates with DNase I treatment. SMAD7 mRNA levels were measured by quantitative real-time PCR. Primer probe set RTS5062 was used to measure human SMAD7 mRNA levels. SMAD7 mRNA levels were adjusted according to total RNA content, as measured by RIBOGREEN®. Results are presented as percent inhibition of SMAD7 mRNA expression, relative to untreated control cells.
All Ionis oligonucleotides had greater potency than ION 736697/Mongersen.

[2] = tested on: murine Smad7 mRNA; assay: Dose-dependent inhibition of murine Smad7 mRNA in bEND cells, electroporation (Example 5, Study 2); type: cell-based, mouse; settings: electroporation; for % inhibition of SMAD7 mRNA expression: approximately 16 hours
Experimental: Many of the Ionis designed oligonucleotides as well as ION 736697/Mongersen are complementary to mouse Smad7 mRNA. […] After a treatment period of approximately 16 hours, the cells were washed and lyzed and RNA on 384-well Pall plates with DNase I treatment. Smad7 mRNA levels were measured by quantitative real-time PCR. Primer probe set RTS1114 (forward sequence […], designated herein as SEQ ID NO: 8; reverse sequence […], designated herein as SEQ ID NO: 9; probe sequence […], designated herein as SEQ ID NO: 10) was used to measure murine Smad7 mRNA levels. Smad7 mRNA levels were adjusted according to total RNA content, as measured by RIBOGREEN®. Results are presented as percent inhibition of Smad7 mRNA expression, relative to untreated control cells.
Many of the Ionis oligonucleotides had greater potency than ION 736697/Mongersen.

[3] = tested on: human peripheral blood mononuclear cells (PBMCs); assay: Human PBMC activation assay, cytokine levels (IL-10, IL-6, MCP-1, TNF-α) in supernatant after 24 hours (Example 9); settings: human PBMC supernatant after 24 hours
Experimental: Ionis SMAD7 oligonucleotides were tested in an in vitro assay for potential immunostimulatory properties in an in vitro human peripheral blood mononuclear cell (PBMC) activation assay.
Blood samples were collected from healthy human volunteers in heparinized vials and mixed well. Human PBMCs were isolated by gradient centrifugation using Ficoll-Histopaque. The cells were washed, counted and resuspended in medium. The PBMCs were plated in a 24-well culture plate and various concentrations of oligonucleotides were added to the media. An oligonucleotide historically known to promote an inflammatory response was used as a positive control, whereas an oligonucleotide known not to be pro-inflammatory was used as a negative control. […] The supernatants were collected after 24 hours and analyzed for cytokine levels using MSD platform.

[4] = tested on: human SMAD7 mRNA; assay: Antisense inhibition of human SMAD7 mRNA expression in Hep3B cells by 3-10-3 cEt gapmers, 10,000 nM, electroporation (Example 2); type: cell-based; settings: approximately 24 hours, primer probe set RTS5062, relative to untreated control cells
Procedure, shortened: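 Hep3B cells (20,000/well) were electroporated with 10,000 nM 3-10-3 cEt gapmer (16-mer, phosphorothioate, 5-methylcytosines) and harvested after about 24 h. SMAD7 mRNA quantified by RT-qPCR with primer probe set RTS5062, normalized to total RNA by RiboGreen; percent inhibition relative to untreated cells.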

[5] = tested on: human SMAD7 mRNA; assay: Dose-dependent inhibition of human SMAD7 mRNA expression in Hep3B cells (Example 3, Study 1 and 2); type: cell-based; settings: electroporation; for % inhibition of SMAD7 mRNA expression: approximately 16 hours
Procedure, shortened: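 Hep3B cells, 20,000 per well, electroporated with antisense oligonucleotide at 0.31, 1.25, 5.00 or 20.00 μM (first series) or 0.74, 2.22, 6.67 or 20.00 μM (second series). After ~16 h, SMAD7 mRNA measured by RT-qPCR (RTS5062), normalised to RIBOGREEN total RNA. Percent inhibition vs untreated cells; IC50 derived.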

[6] = tested on: human SMAD7 mRNA; assay: Dose-dependent inhibition of human SMAD7 mRNA expression in Hep3B cells, comparison with ION 28453 (Example 4); type: cell-based; settings: electroporation, approximately 16 hours
Experimental: Cells were plated at a density of 20,000 cells per well and transfected using electroporation with 0.25 μM, 0.74 μM, 2.22 μM, 6.67 μM, or 20.00 μM concentrations of antisense oligonucleotide, as specified in the Tables below. After a treatment period of approximately 16 hours, RNA was isolated from the cells and SMAD7 mRNA levels were measured by quantitative real-time PCR. Primer probe set RTS5062 was used to measure human SMAD7 mRNA levels. SMAD7 mRNA levels were adjusted according to total RNA content, as measured by RIBOGREEN®. Results are presented as percent inhibition of SMAD7 mRNa expression, relative to untreated control cells.
The half maximal inhibitory concentration (IC50) of each oligonucleotide is also presented. […] Several newly designed antisense oligonucleotides had greater potency than the previously disclosed lead compound, ION 28453.

[7] = tested on: mouse Smad7 mRNA; assay: Murine Smad7 mRNA expression after oral administration in BALB/c mice (Example 11); type: in vivo; settings: 500 mg/kg/day oral for 3 weeks, 24 hours after last dose
Experimental: The objective of this study was to evaluate the efficacy of Ionis SMAD7 antisense oligonucleotides in BALB/c mice following daily oral administration. The Ionis oligonucleotides are cross-reactive with mouse Smad7 mRNA.
Groups of BALB/c mice were orally administered 500 mg/kg/day for 3 weeks of human Smad7 oligonucleotides, ION 790615, ION 798781, or ION 830025, or mouse Smad7 oligonucleotide, ION 772797 (a 3-10-3 cEt gapmer with phosphorothioate backbone and sequence […]; designated herein as SEQ ID NO: 2743). One group of mice was orally administered PBS daily for 3 weeks. Each group contained 4 mice.
To evaluate the efficacy of the oligonucleotides, murine Smad7 mRNA expression in the liver, kidneys, duodenum, ileum, and colon was measured using primer probe set RTS1114.

736697 (antisense GTCGCCCCTTCTCCCCGCAGC; chemistry not fully specified) [compound 736697]
% inhibition of SMAD7 mRNA expression ([1]; 0.08 μM): 14%
% inhibition of SMAD7 mRNA expression ([1]; 0.25 μM): 20%
% inhibition of SMAD7 mRNA expression ([1]; 0.74 μM): 24%
% inhibition of SMAD7 mRNA expression ([1]; 2.22 μM): 13%
% inhibition of SMAD7 mRNA expression ([1]; 6.67 μM): 34%
% inhibition of SMAD7 mRNA expression ([1]; 20.00 μM): 37%
IC50 ([1]; SMAD7 mRNA): > 20 µM
% inhibition of SMAD7 mRNA expression ([2]; 0.25 μM): 1%
% inhibition of SMAD7 mRNA expression ([2]; 0.74 μM): 1%
% inhibition of SMAD7 mRNA expression ([2]; 2.22 μM): 0%
% inhibition of SMAD7 mRNA expression ([2]; 6.67 μM): 0%
% inhibition of SMAD7 mRNA expression ([2]; 20.00 μM): 0%
IC50 [2]: > 20 µM
Levels of IL-6 ([3]; 0.0128 μM oligonucleotide): 3.6 pg/mL
Levels of IL-10 ([3]; 0.0128 μM oligonucleotide): 2.1 pg/mL
Levels of MCP-1 ([3]; 0.0128 μM oligonucleotide): 297.6 pg/mL
Levels of TNF-α ([3]; 0.0128 μM oligonucleotide): 2.8 pg/mL
Levels of IL-6 ([3]; 0.064 μM oligonucleotide): 5.3 pg/mL
Levels of IL-10 ([3]; 0.064 μM oligonucleotide): 3.1 pg/mL
Levels of MCP-1 ([3]; 0.064 μM oligonucleotide): 385.9 pg/mL
Levels of TNF-α ([3]; 0.064 μM oligonucleotide): 3.5 pg/mL
Levels of IL-6 ([3]; 0.32 μM oligonucleotide): 12.3 pg/mL
Levels of IL-10 ([3]; 0.32 μM oligonucleotide): 3.5 pg/mL
Levels of MCP-1 ([3]; 0.32 μM oligonucleotide): 681.3 pg/mL
Levels of TNF-α ([3]; 0.32 μM oligonucleotide): 5.5 pg/mL
Levels of IL-6 ([3]; 1.6 μM oligonucleotide): 15.5 pg/mL
Levels of IL-10 ([3]; 1.6 μM oligonucleotide): 2.2 pg/mL
Levels of MCP-1 ([3]; 1.6 μM oligonucleotide): 693.9 pg/mL
Levels of TNF-α ([3]; 1.6 μM oligonucleotide): 6.8 pg/mL
Levels of IL-6 ([3]; 8 μM oligonucleotide): 57.4 pg/mL
Levels of IL-10 ([3]; 8 μM oligonucleotide): 4.2 pg/mL
Levels of MCP-1 ([3]; 8 μM oligonucleotide): 2306.8 pg/mL
Levels of TNF-α ([3]; 8 μM oligonucleotide): 13.6 pg/mL
Levels of IL-6 ([3]; 40 μM oligonucleotide): 63.3 pg/mL
Levels of IL-10 ([3]; 40 μM oligonucleotide): 4.7 pg/mL
Levels of MCP-1 ([3]; 40 μM oligonucleotide): 2974.9 pg/mL
Levels of TNF-α ([3]; 40 μM oligonucleotide): 28.1 pg/mL
Levels of IL-6 ([3]; 200 μM oligonucleotide): 64.8 pg/mL
Levels of IL-10 ([3]; 200 μM oligonucleotide): 4.0 pg/mL
Levels of MCP-1 ([3]; 200 μM oligonucleotide): 622.8 pg/mL
Levels of TNF-α ([3]; 200 μM oligonucleotide): 43.7 pg/mL

772568 (antisense kA*kG*k[5mC]*d[5mC]*dT*d[5mC]*dT*dT*dG*dA*d[5mC]*dT*dT*k[5mC]*k[5mC]*kG) [compound 772568]
% inhibition of SMAD7 mRNA expression ([4]; Hep3B cells, electroporation with 10,000 nM antisense oligonucleotide): 82%
% Inhibition ([4]; SMAD7 mRNA, Hep3B cells, 10,000 nM antisense oligonucleotide, electroporation): 45%
% inhibition of SMAD7 mRNA expression ([5]; 740 nM, Study 2, relative to untreated control cells): 41%
% inhibition of SMAD7 mRNA expression ([5]; 2220 nM, Study 2): 62%
% inhibition of SMAD7 mRNA expression ([5]; 6670.0 nM, Study 2): 58%
% inhibition of SMAD7 mRNA expression ([5]; 20000.0 nM, Study 2): 79%
IC50 ([5]; Study 2 (740-20000 nM)): 1 µM
% inhibition of SMAD7 mRNA expression ([6]; 0.74 μM): 0%
% inhibition of SMAD7 mRNA expression ([6]; 2.22 μM): 22% and 25%
% inhibition of SMAD7 mRNA expression ([6]; 6.67 μM): 36% and 47%
% inhibition of SMAD7 mRNA expression ([6]; 20.00 μM): 61%
IC50 ([6]; SMAD7 mRNA): 13 µM and 9 µM

772797 (AATGAACTGTATCTCC; sugars from the 5' end k3 d10 k3, all phosphorothioate, methylation of C not given here) [compound 772797]
Mouse Smad7 mRNA expression (% inhibition), Colon ([7]; colon): 1 % inhibition
Mouse Smad7 mRNA expression (% inhibition), Duodenum ([7]; duodenum): 36 % inhibition
Mouse Smad7 mRNA expression (% inhibition), Ileum ([7]; ileum): 8 % inhibition
Mouse Smad7 mRNA expression (% inhibition), Kidney ([7]; kidney): 0 % inhibition
Mouse Smad7 mRNA expression (% inhibition), Liver ([7]; liver): 7 % inhibition
